Experiments:
[1] = (§1) MMV: Anti-babesial activity assay. Parasite pRBCs at 1% parasitemia were cultivated in 100 ul with 96-well plates at 2.5% and 5% hematocrits. The parasites were cultivated in triplicate for 4 days without replacement of the medium for each concentration of the compound.; assay type: functional, Babesia caballi
[2] = as §1; assay type: functional, Babesia equi
[3] = as §1; assay type: functional, Babesia bovis
[4] = as §1; assay type: functional, Babesia bigemina

SMILES | IC50 [1] [µM] | IC50 [2] [µM] | IC50 [3] [µM] | IC50 [4] [µM]
CC(=O)NCCc1nc2ccccc2n1Cc1ccc(C(C)C)cc1 | 10 | 1 | 7.96 | 8.2
O=C(Nc1ccccc1O)c1ccc(Oc2cccc(C(=O)Nc3ccccc3O)c2)cc1 | 19.4 | 4.19 | 6.45 | 2.86
CCCC(c1nnnn1C1CCCCC1)N1CCN(C(=O)c2ccco2)CC1 (centres undefined) | 0.13 | 0.219 | 0.059 | 0.083
c1ccc2c(NCCCCCCNc3c4c(nc5ccccc35)CCCC4)c3c(nc2c1)CCCC3 | 6.31 | 0.5 | 0.99 | 2.17
Cc1ccc2c(C)nc(Nc3nc(C)cc(-c4ccccc4)n3)nc2c1 | 4.13 | 14.4 | 16.8 | 7.95
Cc1ccccc1OCCSc1nc2ccc(NC(=O)c3ccccc3)cc2s1 | 16.9 | 1 | 0.9 | 0.26
CCOc1ccc2nc(C)cc(Nc3ccc(Br)cc3)c2c1 | 15.2 | 7.13 | 1.07 | 0.6
Oc1ccc(-c2nc(-c3ccc4oc5ccc(-c6[nH]c(-c7ccc(O)cc7)nc6-c6ccccc6)cc5c4c3)c(-c3ccccc3)[nH]2)cc1 | 10 | 0.1 | 0.059 | 1.39
COCCNCC(O)Cn1c2ccc(Cl)cc2c2cc(Cl)ccc21 (centres undefined) | 5.64 | 16.3 | > 25 | 1.87
COc1cc(C(=O)Nc2nc3c(cc4c5c(cccc53)CC4)s2)cc(OC)c1OC | 5 | 4.41 | 3.08 | 8.04
O=C(Nc1ccc(F)c(Cl)c1)Nc1ccc(Cl)c(Cl)c1 | 3.81 | 3.39 | 3.53 | 3.39
O=C(Nc1cccc(-c2nc3ccccc3[nH]2)c1)c1cccc(NC(=O)c2ccco2)c1 | 5.21 | 3.7 | 3.32 | 6.8
COc1ccc(-c2cc(=O)oc3c4c(ccc23)OCN(Cc2ccc(F)cc2)C4)cc1 | 0.071 | 14.8 | 2.95 | 0.29
COc1cc(-c2nc(-c3ccc(Sc4ccccc4)cc3)c(-c3ccccc3)[nH]2)cc(OC)c1O | 3.45 | 12 | 7.54 | 16.5
c1ccc(Cn2c(N=Nc3c(Nc4ccccc4)ccc4ccccc34)nc3ccccc32)cc1 | 2.84 | 0.76 | 2.93 | 3.3
CCCCc1c(C)nc2c(OC)cccc2c1O | 5.64 | 14 | 10 | 15.3
CC(C)(C)CC(C)(C)NCC(O)COc1ccc(Cl)cc1Cl (centres undefined) | 0.071 | 0.53 | 0.083 | 0.32
N=c1c2ccccc2nnn1-c1cccc(C(F)(F)F)c1 | 18.1 | 9.18 | 15 | 19.1
CCOc1c(Cl)cc(CNCC(O)c2ccccc2)cc1OC (centres undefined) | 4.77 | 10 | 6.8 | 18.9
COc1ccc(CN2CCCC(C(=O)c3ccc(C(F)(F)F)cc3)C2)c(O)c1 (centres undefined) | 16.5 | 3.86 | 0.21 | 19.8
COc1cc2c3cc1Oc1c(OC)c(OC)cc4c1C(Cc1ccc(O)c(c1)Oc1ccc(cc1)CC3N(C)CC2)N(C)CC4 (centres undefined) | 3.86 | 0.26 | 0.068 | 10

SMILES | IC50 [1] [µM] | IC50 [2] [µM] | IC50 [3] [µM] | IC50 [4] [µM]
CC(NCc1ccccc1)c1cc(Cl)ccc1O (centres undefined) | 16.6 | 8.25 | 3.81 | 12
CCC1(C)CC(CCNCc2ccccc2O)(c2ccc(C)cc2)CCO1 (centres undefined) | 7.3 | 0.61 | 14.1 | 16.8
COc1ccc2nc(N)nc(C)c2c1 | 4.19 | 3.03 | 7.23 | 15.6
CCCCOc1ccc(C(=O)Nc2cc(C)on2)cc1 | 0.083 | 6.99 | 21.2 | 25
CN(C)CCNc1cc(-c2ccccc2)nc2ccccc12 | 0.1 | 0.59 | 4.65 | 3.03
Cc1[nH]c(-c2ccc(F)cc2)cc1C(=O)NC1CCN(Cc2ccccc2)CC1 | 8.21 | 0.58 | 0.303 | 4.29
Cc1ccc(-c2cc3c(SCC(=O)Nc4cc(C(F)(F)F)ccc4Cl)nccn3n2)cc1 | 13.5 | 5.89 | 21.6 | 16.6
CCCCCC(=O)N1c2ccccc2N=C2CC(c3ccc(OC)c(OC)c3)CC(O)=C2C1c1ccc(C(F)(F)F)cc1 (centres undefined) | 14.2 | 21.9 | > 25 | 16.2
CN(C)c1ccc(C=Cc2nc(=O)c3ccccc3o2)cc1 | 14.6 | 11.5 | 16.2 | 16.8
O=C(NC1CCN(Cc2ccccc2)CC1)c1cc(-c2cccnc2)nc2ccc(Cl)cc12 | 0.071 | 0.48 | > 25 | 13.9
Cc1sc2ncnc(Sc3nc4ccccc4[nH]3)c2c1C | 0.29 | 5.5 | 0.05 | 0.41
Oc1c2c(nc3cc(-c4ccccc4)nn13)CCCC2 | 1.29 | 0.44 | 5.5 | > 25
CN(C)c1ccc(-c2nc3cc(N)ccc3[nH]2)cc1 | 7.59 | 3.61 | 0.083 | 1.04
N=c1n(CCN2CCCCC2)c2ccccc2n1CC(=O)c1ccc(Cl)c(Cl)c1 | 3.73 | 15.9 | 0.077 | 0.066
Cc1ccc(C(=O)c2oc3ccc4c(C)cc(=O)oc4c3c2C)cc1 | 9.18 | 0.054 | 0.07 | 0.065
CC1CN(C(=O)c2sc3ccccc3c2Cl)CC(C)O1 (centres undefined) | 19.2 | 23.1 | > 25 | 18.2
CC(C)CCNCC(O)Cn1c2ccccc2c2ccccc21 (centres undefined) | 0.38 | 0.84 | 0.081 | 0.76
CCC(C)NCC(O)(c1ccc(Cl)cc1)c1ccc(Cl)cc1 (centres undefined) | 2.96 | 7.67 | 25 | 1.9
CC1CCCCN1CCCNC(=O)c1ccc2c(c1)sc1nc(-c3ccc(F)cc3)cn12 (centres undefined) | 8.54 | 0.1 | 0.19 | 3.9
CC1=C(CC(=O)c2cccc([N+](=O)[O-])c2)C(=O)c2ccccc2C1=O | 6.86 | 4.85 | 0.36 | 0.49
COc1cc(C(=O)Nc2ccc(-c3nc4ccccc4[nH]3)cc2)cc(OC)c1OC | 11 | 15.9 | 13.3 | 1

SMILES | IC50 [1] [µM] | IC50 [2] [µM] | IC50 [3] [µM] | IC50 [4] [µM]
Cc1ccc(-c2cc3nc4c(c(O)n3n2)CCCC4)cc1 | 15.8 | 7.05 | 7.31 | 15
CCOc1cccc(C(=O)Nc2ccc(-c3nc4ccccc4[nH]3)cc2)c1 | 0.075 | 10 | 17.2 | 5.64
CCOc1ccc(Nc2c3ccccc3nc3ccccc23)cc1 | 7.54 | 4.52 | 0.72 | 0.1
COc1ccc(CCN2CCC(CN(C)Cc3cnn(-c4ccccc4)c3)CC2)cc1 | 2.45 | 0.62 | 0.87 | 4.29
COc1ccc(-c2nonc2NC(=O)c2cccc(Cl)c2)cc1OC | 11.5 | 16.6 | 10 | 8.2
COc1ccc(C2NCCc3c2[nH]c2ccccc32)cc1CN1CCN(c2ccc(F)cc2)CC1 (centres undefined) | 10 | 10.1 | 3.71 | 16.5
COc1ccccc1CNC(=O)CCn1c(=O)[nH]c2ccccc2c1=O | 4.38 | 14.2 | 19.5 | 3.9
CCCOCc1cc(CN2CCN(c3cccc(Cl)c3)CC2)c(O)c2ncccc12 | 5.9 | 2.95 | 1.74 | 3.86
COc1cc(OC)cc(N2C(=O)N(Cc3ccc(C(C)(C)C)cc3)c3ccccc3S2(=O)=O)c1 | 7.54 | 13.3 | 1 | 0.19
Cc1cc(C)c2nc(N3CCC(C(=O)NCCCN4CCC(N5CCCCC5)CC4)CC3)sc2c1 | 4.77 | 0.64 | 2.74 | 3.91
O=C1c2ccccc2C2=Nc3ccccc3SC(c3cccc(F)c3)C12 (centres undefined) | 0.13 | 14.8 | 0.31 | 5.3
Cc1cc(N2CCN(C3CCCC3)CC2)n2c(nc3ccccc32)c1C#N | 0.38 | 0.065 | 0.75 | 0.1
OC(CNCc1ccccc1)Cn1c2ccccc2c2ccccc21 (centres undefined) | 3.9 | 4.19 | 3.25 | 18
COc1ccc(N2CCN(C(CNC(=O)CC(C)(C)C)c3ccc4c(c3)OCO4)CC2)cc1 (centres undefined) | 16.1 | 0.51 | 0.79 | 0.1
O=C(Nc1ccc(N2CCCCC2)c(Cl)c1)c1ccc(Br)o1 | 13.9 | 18.7 | 11.9 | 17.7
Cc1ccc(F)cc1NC(=O)c1cc(Cl)ccc1Nc1ccccc1 | 2.56 | > 25 | 18.6 | 10.2
COc1ccc(Nc2cc(C)nc(NCc3ccccc3)n2)cc1 | 14.6 | 15.2 | 0.054 | 0.067
CCCCC(O)(c1ccc(Cl)cc1)C(CN1CCOCC1)c1ccc(Cl)cc1 (centres undefined) | 0.55 | 13.2 | 11.9 | 0.1
Fc1ccc2[nH]c3c(NCCCN4CCOCC4)ncnc3c2c1 | 14.7 | 2.88 | 19.7 | 17.1
